8 molecules from ChEMBL document CHEMBL1201862, “PubChem BioAssay data set” (2004) can be followed below.

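Cultured in 96-well plates, cells were exposed to test compound for 48 hours across five concentrations. The concentration for 50% growth inhibition is given as GI50.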 The source made the active and inactive calls. Cut-off read from the data, not from the text of the source: active = GI50 up to about 1.1 µM and inactive = higher. Bounds are passed on as bounds.

Test systems include RPMI-8226; ACHN; MDA-MB-435; Malme-3M; T47D; COLO 205; Hs-578T; MDA-MB-231; UACC-257; SN12C; LOX IMVI; A549; SW-620; MCF7; PC-3; U-251; NCI/ADR-RES; A498; NCI-H522.
Test in all cases: NCI anticancer screen, dose series, 48 h

As for `OC1(c2ccc(Cl)cc2)c2ccc(CN3CCCC3)cc2C2=NCCN21` (configuration not stated), the GI50 in the assay with RPMI-8226 is 10.2 µM (inactive); in the assay on ACHN, 16.7 µM (inactive); in the assay on MDA-MB-435, 10.5 µM (inactive); in the assay with Malme-3M, 11 µM (inactive); with T47D it was 18.5 µM (inactive); in the assay with COLO 205, 10.8 µM (inactive). The GI50 in the assay on Hs-578T was 12.3 µM (inactive); with MDA-MB-231, 13.9 µM (inactive); with UACC-257, 12.5 µM (inactive); in the assay on SN12C, 16.4 µM (inactive); in the assay with LOX IMVI, 13.9 µM (inactive); in the assay with A549, 17.1 µM (inactive). Further, the GI50 with SW-620 was 13.3 µM (inactive); in the assay on MCF7 it was 16.8 µM (inactive); with PC-3 it was 13.3 µM (inactive); with U-251 it was 14 µM (inactive); in the assay on NCI/ADR-RES, > 100 µM (inactive); in the assay with A498 it was 13.1 µM (inactive).
Take `Cc1n[nH]c(=O)c2cc(-c3ccccc3)[nH]c12`: the GI50 in the assay with RPMI-8226 was 37.6 µM (inactive); with ACHN it was 32.8 µM (inactive); in the assay with MDA-MB-435 it was 51.9 µM (inactive); with Malme-3M, 64.1 µM (inactive); with T47D, 27.5 µM (inactive); with COLO 205, 27.7 µM (inactive). Also, the GI50 in the assay on Hs-578T was 26.4 µM (inactive); in the assay with MDA-MB-231, 40.8 µM (inactive); with UACC-257 it was 49.8 µM (inactive); in the assay with SN12C it was 75.3 µM (inactive); in the assay on LOX IMVI, 58.7 µM (inactive); in the assay on A549, 49 µM (inactive). In addition, the GI50 is > 100 µM (inactive) in the assay with SW-620; 30.8 µM (inactive) in the assay with MCF7; 34.5 µM (inactive) with PC-3; 51.2 µM (inactive) with U-251; 57.8 µM (inactive) in the assay with NCI/ADR-RES; 25.9 µM (inactive) in the assay with A498.
On to `Cc1nn(C(=O)c2ccc(Cl)cc2)c2c1C(c1ccc(O)cc1)SC(=N)N2` (configuration not stated), for which the GI50 in the assay with RPMI-8226, with NCI-H522, in the assay with ACHN, in the assay on MDA-MB-435, with Malme-3M and with T47D was > 10 µM (inactive) throughout. In addition, the GI50 in the assay with COLO 205, in the assay on Hs-578T, in the assay on MDA-MB-231, in the assay on UACC-257, with SN12C and in the assay with LOX IMVI was > 10 µM (inactive) in each case. For the same molecule, the GI50 in the assay on A549, with SW-620, in the assay with MCF7, in the assay with PC-3, in the assay on U-251 and in the assay with NCI/ADR-RES was > 10 µM (inactive) in each case.
With `O=C1/C(=C2\SCC(=O)N2c2ccccc2)SC(=S)N1c1ccccc1`, the GI50 is 36.3 µM (inactive) in the assay with RPMI-8226; 26.2 µM (inactive) with ACHN; 32.1 µM (inactive) in the assay on MDA-MB-435; 38.2 µM (inactive) in the assay with Malme-3M; 51.2 µM (inactive) with T47D; 67 µM (inactive) in the assay with COLO 205. Further, the GI50 in the assay with Hs-578T was 34.5 µM (inactive); in the assay with MDA-MB-231, 20.6 µM (inactive); with UACC-257, 42.8 µM (inactive); in the assay with SN12C, 25.6 µM (inactive); with LOX IMVI it was 32.7 µM (inactive); with A549, 31 µM (inactive). The GI50 with SW-620 was 45.1 µM (inactive); in the assay with MCF7, 36.8 µM (inactive); in the assay on PC-3, 28.6 µM (inactive); with U-251 it was 30.4 µM (inactive); with NCI/ADR-RES it was 27 µM (inactive); in the assay with A498 it was 40.4 µM (inactive).
Take `O=c1ccc2c(Cl)sc(Cl)c2[nH]1`: the GI50 with RPMI-8226 is > 100 µM (inactive); in the assay on NCI-H522 it was 92.9 µM (inactive); in the assay with ACHN it was > 100 µM (inactive); in the assay on MDA-MB-435 it was > 100 µM (inactive); in the assay on Malme-3M it was 43.8 µM (inactive); in the assay on T47D, > 100 µM (inactive). For the same molecule, the GI50 was 35.2 µM (inactive) in the assay on Hs-578T; > 100 µM (inactive) with MDA-MB-231; > 100 µM (inactive) with UACC-257; > 100 µM (inactive) in the assay with SN12C; > 100 µM (inactive) with LOX IMVI; > 100 µM (inactive) in the assay with A549. The GI50 in the assay on SW-620, in the assay on MCF7, with PC-3, in the assay with U-251 and in the assay on NCI/ADR-RES was > 100 µM (inactive) each time.
Turning to `O=C1c2ccsc2-c2cccc3cccc1c23.O=C1c2sccc2-c2cccc3cccc1c23`, the GI50 with RPMI-8226 was 0.0359 µM (active); in the assay with NCI-H522 it was 5.21 µM (inactive); in the assay on ACHN, 2.37 µM (inactive); in the assay on MDA-MB-435, 17.1 µM (inactive); in the assay with Malme-3M, 0.353 µM (active); with T47D it was 0.318 µM (active). The GI50 in the assay on COLO 205 was 2.33 µM (inactive); in the assay with Hs-578T, 0.366 µM (active); in the assay with MDA-MB-231, 4.35 µM (inactive); with UACC-257 it was 9.2 µM (inactive); with SN12C it was 6.67 µM (inactive); with LOX IMVI, 3.72 µM (inactive). Also, the GI50 in the assay with A549 is 3.32 µM (inactive); in the assay on SW-620, 3.27 µM (inactive); in the assay with MCF7 it was 8.41 µM (inactive); in the assay on PC-3 it was 4.05 µM (inactive); in the assay on U-251 it was 4.62 µM (inactive); in the assay with NCI/ADR-RES, 3.56 µM (inactive).
As to `CC(C)C1OC23CCCCC2C(C#N)(C#N)C1(C#N)C(=N)O3` (configuration not stated), the GI50 in the assay with ACHN was 33.1 µM (inactive); with MDA-MB-435, 23.7 µM (inactive); with Malme-3M, 16.8 µM (inactive); in the assay on T47D it was 17.6 µM (inactive); with COLO 205, 14.6 µM (inactive); with Hs-578T, 16.4 µM (inactive). For the same molecule, the GI50 was 19.6 µM (inactive) with MDA-MB-231; 20.6 µM (inactive) in the assay on UACC-257; 15.2 µM (inactive) with SN12C; 20.1 µM (inactive) in the assay with LOX IMVI; 71.8 µM (inactive) in the assay on A549; 13.7 µM (inactive) in the assay with SW-620. For the same molecule, the GI50 is 12.1 µM (inactive) in the assay with MCF7; 30.4 µM (inactive) in the assay on PC-3; 17.4 µM (inactive) in the assay on U-251; 34.8 µM (inactive) in the assay with NCI/ADR-RES; 25.3 µM (inactive) with A498.
Regarding `Nc1ccc(S(=O)(=O)Nc2nc3ccccc3nc2N2CCCCC2)cc1`, the GI50 with RPMI-8226 was 58.9 µM (inactive); in the assay on NCI-H522, 31.1 µM (inactive); with ACHN, 98.6 µM (inactive); in the assay on MDA-MB-435, > 100 µM (inactive); in the assay on Malme-3M it was 71.9 µM (inactive); in the assay on T47D it was 41.6 µM (inactive). Further, the GI50 in the assay with COLO 205 was 64.9 µM (inactive); with Hs-578T, > 100 µM (inactive); with MDA-MB-231, > 100 µM (inactive); with UACC-257, > 100 µM (inactive); with SN12C, 82 µM (inactive); in the assay on LOX IMVI it was > 100 µM (inactive). In addition, the GI50 in the assay on A549 was 48.1 µM (inactive); in the assay with SW-620, 59 µM (inactive); in the assay on MCF7 it was 84.3 µM (inactive); in the assay on PC-3, 59.3 µM (inactive); in the assay on U-251, 68.2 µM (inactive); with NCI/ADR-RES it was 46.3 µM (inactive).
